Data as given in US8911751B2, “Compositions for nasal delivery” (Yissum Research Development Company of the Hebrew …, priority 2005, dated 2014).

Test system: Female C57Bl/6 mice
Test: Pentobarbitone-induced sleeping in mice (Example 34)
Assay type: in vivo
Conditions: oral Brotizolam 0.25 mg/kg, 5 minutes before sleep induction; compared to control

In the case of Cc1nnc2n1-c1sc(Br)cc1C(c1ccccc1Cl)=NC2 [Oral Brotizolam, 8-bromo-6-(o-chlorophenyl)-1-methyl-4H-s-triazolo[3,4c]thieno[2,3e]1,4-diazepine], the “latency (onset of the loss of righting reflex)” value is reported as “no significant effect” and the “total sleeping time (TST)” value is reported as “no significant effect”.
